For 32 molecules, melting point results are on record in patent publication US20040110763A1, “Pyrazolopyridine compound and pharmaceutical use thereof” (priority 2000, published 2004).

One may read the melting point as the temperature, or range, at which the solid turns liquid.

Take `COc1ccn2nc(-c3ccccc3)c(-c3ccc(=O)[nH]n3)c2c1` [Example 1, 5-methoxy-3-(3-oxo-2,3-dihydropyridazin-6-yl)-2-phenylpyrazolo[1,5-a]-pyridine]: the melting point is 245.5 to 247 °C.
With `CC(C)n1nc(-c2c(-c3ccccc3)nn3ccc(OCC(=O)N(C)C)cc23)ccc1=O` [Example 40, 2-{[3-(3-oxo-2-isopropyl-2,3-dihydropyridazin-6-yl)-2-phenylpyrazolo[1,5-a]pyridin-5-yl]oxy}-N,N-dimethylacetamide] the figure was 189 to 190 °C; with `CC(C)n1nc(-c2c(-c3ccccc3)nn3ccc(C(=O)N4CCCCC4)cc23)ccc1=O` [Example 89, 5-(1-Piperidinylcarbonyl)-3-(3-oxo-2-isopropyl-2,3-dihydropyridazin-6-yl)-2-phenylpyrazolo[1,5-a]pyridine], 185 to 186 °C.
In the case of `COC(=O)c1ccn2nc(-c3ccccc3)c(-c3ccc(=O)n(C(C)C)n3)c2c1` [Example 69, methyl 3-(3-oxo-2-isopropyl-2,3-dihydropyridazin-6-yl)-2-phenylpyrazolo[1,5-a]pyridine-5-carboxylate], the melting point was in the range of 186 to 187 °C.
Take `CC(C)n1nc(-c2c(-c3ccccc3)nn3ccc(Oc4ccccc4)cc23)ccc1=O` [Example 37, 5-Phenoxy-3-(3-oxo-2-isopropyl-2,3-dihydropyridazin-6-yl)-2-phenylpyrazolo[1,5-a]pyridine]: the melting point was in the range of 181 to 182 °C.
Consider `CC(=O)Nc1ccn2nc(-c3ccccc3)c(-c3ccc(=O)n(C(C)C)n3)c2c1` [Example 147, 5-acetylamino-3-(3-oxo-2-isopropyl-2,3-dihydropyridazin-6-yl)-2-phenylpyrazolo[1,5-a]pyridine], for which the melting point fell in the range of 221 to 222 °C.
With `CC(C)n1nc(-c2c(-c3ccccc3)nn3ccc(N4CCCC4=O)cc23)ccc1=O` [Example 153, 5-(2-oxo-1-pyrrolidinyl)-3-(3-oxo-2-isopropyl-2,3-dihydropyridazin-6-yl)-2-phenylpyrazolo [1,5-a]pyridine] the figure was 266 to 267 °C; with `CNC(=O)c1ccn2nc(-c3ccccc3)c(-c3ccc(=O)n(C(C)C)n3)c2c1` [Example 88, N-Methyl-3-(3-oxo-2-isopropyl-2,3-dihydropyridazin-6-yl)-2-phenylpyrazolo[1,5-a]pyridine-5-carboxamide], 225 to 226 °C.
`CC(C)n1nc(-c2c(-c3ccccc3)nn3ccc(N4CCOCC4)cc23)ccc1=O` [Example 98, 5-(4-Morpholinyl)-3-(3-oxo-2-isopropyl-2,3-dihydropyridazin-6-yl)-2-phenylpyrazolo[1,5-a]pyridine] showed a melting point of 182 to 187 °C.
The value for `CC(C)n1nc(-c2c(-c3ccccc3)nn3ccc(OCCC4CCCCC4)cc23)ccc1=O` [Example 23, 5-(2-Cyclohexylethoxy)-3-(3-oxo-2-isopropyl-2,3-dihydropyridazin-6-yl)-2-phenylpyrazolo[1,5-a]pyridine] was 146 to 147 °C; that for `CC(C)OCCNC(=O)c1ccn2nc(-c3ccccc3)c(-c3ccc(=O)n(C(C)C)n3)c2c1` [Example 86, N-(2-Isopropoxyethyl)-3-(3-oxo-2-isopropyl-2,3-dihydropyridazin-6-yl)-2-phenylpyrazolo[1,5-a]pyridine-5-carboxamide] was 124 to 125 °C.
With `CC(C)n1nc(-c2c(-c3ccccc3)nn3ccc(OCCC4CCCC4)cc23)ccc1=O` [Example 33, 5-(2-cyclopentylethoxy)-3-(3-oxo-2-isopropyl-2,3-dihydropyridazin-6-yl)-2-phenylpyrazolo[1,5-a]pyridine], the melting point lay within 159.5 to 160.5 °C.
With `CCCCNC(=O)c1ccn2nc(-c3ccccc3)c(-c3ccc(=O)n(C(C)C)n3)c2c1` [Example 143, N-(n-Butyl)-3-(3-oxo-2-isopropyl-2,3-dihydropyridazin-6-yl)-2-phenylpyrazolo[1,5-a]pyridine-5-carboxamide] the figure was 185 to 186 °C.
With `CC(C)n1nc(-c2c(-c3ccccc3)nn3ccc(OCCN4CCCC4)cc23)ccc1=O` [Example 17, 5-[2-(1-Pyrrolidinyl)ethoxy]-3-(3-oxo-2-isopropyl-2,3-dihydropyridazin-6-yl)-2-phenylpyrazolo[1,5-a]pyridine] the figure was 149 to 150 °C; with `CC(C)n1nc(-c2c(-c3ccccc3)nn3ccc(Oc4ccc([N+](=O)[O-])cn4)cc23)ccc1=O` [Example 48, 5-[(5-Nitro-2-pyridinyl)oxy]-3-(3-oxo-2-isopropyl-2,3-dihydropyridazin-6-yl)-2-phenylpyrazolo[1,5-a]pyridine], 182 to 183.5 °C; with `CC(C)n1nc(-c2c(-c3ccccc3)nn3ccc(N4CCNCC4)cc23)ccc1=O` [Example 107, 5-(1-piperazinyl)-3-(3-oxo-2-isopropyl-2,3-dihydropyridazin-6-yl)-2-phenylpyrazolo[1,5-a]pyridine], 203 to 204 °C.
`CC(=O)N1CCN(c2ccn3nc(-c4ccccc4)c(-c4ccc(=O)n(C(C)C)n4)c3c2)CC1` [Example 113, 5-(4-Acetyl-1-piperazinyl)-3-(3-oxo-2-isopropyl-2,3-dihydropyridazin-6-yl)-2-phenylpyrazolo[1,5-a]pyridine] showed a melting point of 148 to 149 °C.
As to `CC(C)n1nc(-c2c(-c3ccccc3)nn3ccc(N4CCN(Cc5ccccc5)CC4)cc23)ccc1=O` [Example 105, 5-(4-Benzyl-1-piperazinyl)-3-(3-oxo-2-isopropyl-2,3-dihydropyridazin-6-yl)-2-phenylpyrazolo[1,5-a]pyridine], the melting point lay in the range of 136 to 138 °C.
For the molecule `CC(C)n1nc(-c2c(-c3ccccc3)nn3cccc(O)c23)ccc1=O` [Example 195, 4-Hydroxy-3-(3-oxo-2-isopropyl-2,3-dihydropyridazin-6-yl)-2-phenylpyrazolo[1,5-a]pyridine], the melting point lay within 229 to 230 °C.
Regarding `COC(=O)Nc1ccn2nc(-c3ccccc3)c(-c3ccc(=O)n(C(C)C)n3)c2c1` [Example 151, Methyl 3-(3-oxo-2-isopropyl-2,3-dihydropyridazin-6-yl)-2-phenylpyrazolo[1,5-a]pyridin-5-ylcarbamate], the melting point was 213 to 214 °C.
The value for `CC(C)n1nc(-c2c(-c3ccccc3)nn3ccc(C(=O)NC4CCCCCC4)cc23)ccc1=O` [Example 140, N-Cycloheptyl-3-(3-oxo-2-isopropyl-2,3-dihydropyridazin-6-yl)-2-phenylpyrazolo[1,5-a]pyridine-5-carboxamide] was 239 to 240 °C.
The molecule `CC(C)n1nc(-c2c(-c3ccccc3)nn3ccc(OC4CCN(C(=O)N(C)C)CC4)cc23)ccc1=O` [Example 56, N,N-Dimethyl-4-[{3-(3-oxo-2-isopropyl-2,3-dihydropyridazin-6-yl)-2-phenylpyrazolo[1,5-a]pyridin-5-yl}oxy]-1-piperidine carboxamide] displayed a melting point of 164 to 166 °C.
The value for `CC(C)n1nc(-c2c(-c3ccccc3)nn3ccc(OCCCN(C)C)cc23)ccc1=O` [Example 15, 5-(3-Dimethylaminopropoxy)-3-(3-oxo-2-isopropyl-2,3-dihydropyridazin-6-yl)-2-phenylpyrazolo[1,5-a]pyridine] was 125 to 126 °C; that for `CC(C)CCOc1ccn2nc(-c3ccccc3)c(-c3ccc(=O)n(C(C)C)n3)c2c1` [Example 22, 5-Isopentyloxy-3-(3-oxo-2-isopropyl-2,3-dihydropyridazin-6-yl)-2-phenylpyrazolo[1,5-a]pyridine] was 163 to 163.5 °C; that for `COc1ccc(Oc2ccn3nc(-c4ccccc4)c(-c4ccc(=O)n(C(C)C)n4)c3c2)nc1` [Example 47, 5-[(5-Methoxy-2-pyridinyl)oxy]-3-(3-oxo-2-isopropyl-2,3-dihydropyridazin-6-yl)-2-phenylpyrazolo[1,5-a]pyridine] was 148 to 150 °C.
On to `COCC(C)n1nc(-c2c(-c3ccccc3)nn3ccc(OC)cc23)ccc1=O` (centres unmarked) [Example 121, 5-Methoxy-3-[3-oxo-2-(1-methoxy-2-propyl)-2,3-dihydropyridazin-6-yl]-2-phenylpyrazolo[1,5-a]pyridine], for which the melting point is 138 to 139 °C.
Molecule `COc1ccn2nc(-c3ccccc3)c(-c3ccc(=O)n(C4CCOCC4)n3)c2c1` [Example 124, 5-Methoxy-3-[3-oxo-2-(tetrahydropyran-4-yl)-2,3-dihydropyridazin-6-yl]-2-phenylpyrazolo[1,5-a]pyridine] returned a melting point of 224 to 225 °C.
The value for `CC(C)n1nc(-c2c(-c3ccccc3)nn3ccc(OCCN4CCOCC4)cc23)ccc1=O` [Example 6, 5-[2-(4-morpholinyl)ethoxy]-3-(3-oxo-2-isopropyl-2,3-dihydropyridazin-6-yl)-2-phenylpyrazolo[1,5-a]pyridine] was 160 to 162 °C; that for `CC(C)n1nc(-c2c(-c3ccccc3)nn3ccc(OCC(=O)NCCN(C)C)cc23)ccc1=O` [Example 58, N-[2-(dimethylamino)ethyl]-2-{[3-(3-oxo-2-isopropyl-2,3-dihydropyridazin-6-yl)-2-phenylpyrazolo[1,5-a]pyridin-5-yl]oxy}acetamide] was 117 to 119 °C; that for `COc1ccc(S(=O)(=O)Oc2ccn3nc(-c4ccccc4)c(-c4ccc(=O)n(C(C)C)n4)c3c2)cc1` [Example 7, 5-(4-methoxyphenylsulfonyl)oxy-3-(3-oxo-2-isopropyl-2,3-dihydropyridazin-6-yl)-2-phenylpyrazolo[1,5-a]pyridine] was 155 to 157 °C.
Consider `COc1ccn2nc(-c3ccccc3F)c(-c3ccc(=O)n(C(C)C)n3)c2c1` [Example 127, 5-Methoxy-3-(3-oxo-2-isopropyl-2,3-dihydropyridazin-6-yl)-2-(2-fluorophenyl)pyrazolo[1,5-a]pyridine], for which the melting point lay in the range of 174 to 175 °C.
Take `CC(C)n1nc(-c2c(-c3ccccc3)nn3ccc(OCCN4CCCCC4)cc23)ccc1=O` [Example 16, 5-[2-(1-Piperidinyl)ethoxy]-3-(3-oxo-2-isopropyl-2,3-dihydropyridazin-6-yl)-2-phenylpyrazolo[1,5-a]pyridine]: the melting point is 144 to 144.5 °C.
